Laboratory results published in PMC9784827, “In Combo Studies for the Optimization of 5-Aminoanthranilic Acid Derivatives as Potential Multitarget Drugs for the Management of Metabolic Syndrome” (Pharmaceuticals, 2022).
Like-named read-outs stand apart in the source and are kept apart here.

Columns and labels:
diet-induced MetS model [1] = system: diet-induced MetS model; parameters: method as in PMID 34577613; conditions: in vivo diet-induced MetS model, previous study ref 38; cited from earlier work
diet-induced MetS model [2] = assay: In vivo diet-induced (high-fructose high-fat) MetS model; parameters: species or system Sprague–Dawley male rats; conditions: MetS rats, 10 mg/kg p.o. for 14 days, vs untreated group; for effect on glucose levels / effect on total cholesterol levels / effect on triglyceride levels / effect on body weight: HFHF diet; for effect on glucose levels / effect on total cholesterol levels / effect on triglyceride levels: serum; for effect on triglycerides and glucose (TyG) index: TyG = Ln(triglyceride x glucose/2)
Method: In the diet-induced model, MetS was generated through 12 weeks of the consumption of a high-fructose high-fat (HFHF) diet per the previous experience in our group. The control group received a standard diet during the same period. After this induction phase, the animals of the standard diet were randomly allocated into two groups; one group (C/treated groups) would receive treatment with compounds 2, 3, or 4 for 14 days (10 mg/kg, p.o.), and the other group would receive no treatment (C groups). The same allocation was made for the diet-induced MetS group (the MetS group received no treatment, while MetS/treated groups received compound 2, 3, or 4, 10 mg/kg, p.o. for 14 days), as depicted in Figure 4.
For the in vivo experimentation, eighty Sprague–Dawley male rats weighing 250 ± 25 g were housed in acrylic boxes and treated following the recommendations and requirements of the NOM-062-ZOO-1999 (Official Mexican Standard for the Production, Care, and Use of Laboratory Animals). They were kept in a clear-air room maintained on an artificial 12 h light/dark cycle and were given ad libitum access to food and water. The protocol was approved by the Institutional Subcommittee for the Care and Use of Laboratory Animals (SICUAL) with the registration number FMM/SICUAL/006/2017 (date of approval, 30 August 2017).
The animals were randomly allocated to a group (control groups) that was fed on a regular Chow commercial diet (Purina-Rodent Laboratory Chow-5001 3.310 kcal/g) or to a group (MetS groups) that was supplied with a high-fructose and high-fat diet (4.161 kcal/g) for the generation of MetS. From our own experience, MetS is established after twelve weeks with this diet. The weight of each animal was recorded at the beginning of the study and every week after the completion of the induction period. In weeks nine and twelve, the glucose, total cholesterol, and triglyceride levels were monitored in fasting conditions of 12 h, using an Accutrend plus monitor (Roche). Following the MetS induction phase, the control and MetS groups were rearranged into the following groups: (1) control (CM, regular diet + no treatment n = 10); (2) MetS (HFHF diet + no treatment, n = 10); (3) control + compound 2 (C/2 regular diet + treatment with 2, n = 10); (4) MetS + compound 2 (MetS/2, HFHF diet + treatment with 2, n = 10); (5) control + compound 3 (C/3, regular diet + treatment with […], n = 10); (6) MetS + compound 3 (MetS/3, HFHF diet + treatment with 3, n = 10); (7) control + compound 4 (C/4, regular diet + treatment with 4, n = 10); (8) MetS + compound 4 (MetS/4, HFHF diet + treatment with 4, n = 10). The treatment stage lasted 14 days, and the animals retained the same diet they had during the induction to exclude the effect of diet change. All the animals received 100 μL of a 1% Kolliphor EL mixture in water with or without the tested compound (10 mg/Kg) via nasogastric. Animals were sacrificed by decapitation. The blood was collected and centrifuged at 1372× g for 15 min at 4 °C. The serum was gathered and stored at −80 °C until the determination of metabolic parameters.
The animals’ serum was defrosted, and triacylglyceride, cholesterol, and glucose levels were determined on an Architect c8000 system (Abbott, Wiesbaden, Germany). Statistical analysis was performed using one-way ANOVA, followed by Dunnett’s multiple comparisons tests employing GraphPad Prism version 9.4.1 (GraphPad Software, La Jolla, CA, USA). Differences were considered significant when p ≤ 0.05.

HMG-CoA reductase [3] = target: T1, HMG-CoA reductase (Homo sapiens, UniProt P04035); assay: In vitro HMG-CoA reductase inhibition (HMG-CoA Reductase Assay Kit, Sigma-Aldrich CS1090); assay type: biochemical; conditions: for inhibition at 20 µM: initial screening, read-out: inhibition of HMG-CoA reductase enzymatic activity
T1 construct: purchased Sigma-Aldrich CS1090
T1 sequence (P04035 426-888 limits assumed): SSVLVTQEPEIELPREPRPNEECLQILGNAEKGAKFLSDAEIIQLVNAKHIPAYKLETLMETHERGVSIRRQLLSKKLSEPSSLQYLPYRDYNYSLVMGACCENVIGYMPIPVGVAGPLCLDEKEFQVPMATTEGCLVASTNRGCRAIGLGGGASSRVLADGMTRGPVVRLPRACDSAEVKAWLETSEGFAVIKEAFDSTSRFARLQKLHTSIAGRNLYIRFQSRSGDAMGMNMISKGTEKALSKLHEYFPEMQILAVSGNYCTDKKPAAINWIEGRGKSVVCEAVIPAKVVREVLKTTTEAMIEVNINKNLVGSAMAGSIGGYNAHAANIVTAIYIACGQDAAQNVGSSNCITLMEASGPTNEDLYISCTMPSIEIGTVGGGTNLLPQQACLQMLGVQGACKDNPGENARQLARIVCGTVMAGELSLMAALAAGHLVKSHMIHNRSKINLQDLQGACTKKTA
Method: (§1) The HMG-CoA Reductase Assay Kit from Sigma-Aldrich (catalog number CS1090, St. Louis, MO, USA) was used to determine the inhibitory properties of compounds 3 and 4 over enzyme activity, using the instructions provided by the fabricant. […] For IC50 determination of compound 3, final concentrations of 2.5, 5.0, 10.0, and 20 μM were employed by triplicate. The Total Antioxidant Capacity Assay Kit from Sigma-Aldrich (catalog number MAK187, St. Louis, MO, USA) was used for the determination of in vitro antioxidant activity following the manufacturer’s instructions by triplicate.

[4] = Total antioxidant capacity, CUPRAC assay (Trolox equivalent antioxidant capacity); conditions: triplicate
Method: as §1

[5] = parameters: method as in PMID 20072920; conditions: CUPRAC; cited from earlier work
HMG-CoA reductase [6] = target: T1, HMG-CoA reductase; parameters: method as in earlier work; conditions: same commercial kit, ref 73 (Mendieta et al.); cited from earlier work

COc1ccc(C(=O)Nc2ccc(NC(=O)c3ccc(OC)c(OC)c3)c(C(=O)NCc3ccc(C(F)(F)F)cc3)c2)cc1OC [Compound 1]
effect on blood pressure (diet-induced MetS model [1]): diminished | effect on glucose serum levels (diet-induced MetS model [1]): diminished | effect on total cholesterol serum levels (diet-induced MetS model [1]): diminished

COc1ccc(C(=O)Nc2ccccc2C(=O)NCc2ccc(C(F)(F)F)cc2)cc1OC [Compound 2]
effect on glucose levels (diet-induced MetS model [2]): did not affect | effect on total cholesterol levels (diet-induced MetS model [2]): did not affect | effect on triglyceride levels (diet-induced MetS model [2]): did not affect | effect on body weight (diet-induced MetS model [2]): did not affect

COc1ccc(C(=O)Nc2ccc(NC(=O)c3ccc(OC)c(OC)c3)c(C(=O)O)c2)cc1OC [Compound 3, 2,5-Bis(3,4-dimethoxybenzamido)benzoic Acid]
inhibition at 20 µM (HMG-CoA reductase [3]): 94% | IC50 (HMG-CoA reductase [3]; concentrations 2.5, 5.0, 10.0 and 20 μM, triplicate): 8.89 ± 0.51 µM | effect on triglycerides and glucose (TyG) index (diet-induced MetS model [2]): decrease | effect on glucose levels (diet-induced MetS model [2]): reduced | effect on total cholesterol levels (diet-induced MetS model [2]): reduced | effect on triglyceride levels (diet-induced MetS model [2]): reduced | effect on body weight (diet-induced MetS model [2]): reduced | TEAC (Trolox equivalent antioxidant capacity) [4]: 1.01 ± 0.06

COc1ccc(/C=C/C(=O)Nc2ccc(NC(=O)/C=C/c3ccc(OC)c(OC)c3)c(C(=O)NCc3ccc(C(F)(F)F)cc3)c2)cc1OC [Compound 4, (2E,2′E)-N,N′-(2-((4-(Trifluoromethyl)benzyl)carbamoyl)-1,4-phenylene)bis(3-(3,4-dimethoxyphenyl)acrylamide)]
inhibition at 20 µM (HMG-CoA reductase [3]): 46% | effect on triglycerides and glucose (TyG) index (diet-induced MetS model [2]): decrease | effect on total cholesterol levels (diet-induced MetS model [2]): not significant | effect on body weight (diet-induced MetS model [2]): not significant | TEAC (Trolox equivalent antioxidant capacity) [4]: 1.33 ± 0.04 | melting point: > 250 °C

O=C(O[C@@H]1Cc2c(O)cc(O)cc2O[C@@H]1c1ccc(O)c(O)c1)c1cc(O)c(O)c(O)c1 [epicatechin gallate]
TEAC (Trolox equivalent antioxidant capacity) [5]: above 3.0

COc1cc(/C=C/C(=O)O)ccc1O [ferulic acid]
TEAC (Trolox equivalent antioxidant capacity) [5]: 1.20

O=c1c(O)c(-c2ccc(O)c(O)c2)oc2cc(O)cc(O)c12 [quercetin]
TEAC (Trolox equivalent antioxidant capacity) [5]: above 3.0

C/C=C/c1cc(OC)c(OC)cc1OC [α-asarone]
IC50 (HMG-CoA reductase [6]): 5.86 µM
